Data published in patent US11744830B2, “Ameliorative agent for cytokine release syndrome and so on” (TORII PHARMACEUTICAL CO., LTD., priority 2018, dated 2023).

Experiments:
Assay type in all cases: cell-based, human
MCP-1 production = assay: CRS toxicity evaluation system using CAR-T cells: MCP-1; conditions: CRS toxicity evaluation system using CAR-T cells
Description: (§1) The supernatants were collected at 72 hours after the initiation of culture, and various cytokines in each supernatant were measured by FACS multiplex assay.

[1] = tested on: VEGF production from macrophages; assay: LPS stimulation-induced VEGF production in macrophages; conditions: Macrophages, LPS
Description: CD14^+ cells were cultured in 20 ng/mL M-CSF-containing RPMI medium at 37° C. for 5 days to induce differentiation into macrophages (during which the medium was replaced once every two days with fresh 20 ng/mL M-CSF-containing RPMI medium). […] The macrophages were then stimulated with LPS (final concentration: 100 ng/mL) or RPMI medium alone at 37° C. for 3 days, followed by collecting the culture supernatants. The collected culture supernatants were quantified for VEGF using Human VEGF DuoSet ELISA.

[2] = tested on: IL-18 production from LPS-pretreated CD14^+ cells; assay: ATP stimulation-induced IL-18 production from LPS-pretreated CD14^+ cells; conditions: LPS-pretreated CD14^+ cells, ATP
Description: (§2) Cryopreserved PBMCs were quickly thawed in a 37° C. thermostat and added to a tube containing medium. After centrifugation (at room temperature at 300 g for 10 minutes) to remove the supernatant, the cells were suspended again in the medium, followed by counting the number of viable cells. The cell suspension was centrifuged (at room temperature at 300 g for 10 minutes) to remove the supernatant, followed by addition of MACS Buffer to suspend the cells, to which Human CD14 MicroBeads were further added. After being allowed to stand on ice for 15 minutes, the cell suspension was diluted with MACS Buffer and centrifuged (at room temperature at 300 g for 10 minutes) to remove the supernatant.
MACS Buffer was added to the tube, and the cells were suspended and then applied to a separatory column to separate CD14^+ cells. The CD14^+ cell fraction was diluted with the medium and then centrifuged (at room temperature at 300 g for 10 minutes). The supernatant was removed and the cells were suspended in the medium (1 mL), followed by counting the number of viable cells. The cell suspension adjusted with the medium to 2×10^6 cells/mL was seeded in a 96-well plate (1×10^5 cells/well) and allowed to stand in a CO2 incubator for 1 to 2 hours. […] The cells were then stimulated with LPS (final concentration: 500 ng/mL) for 6 hours at 37° C. and an ATP solution (final concentration: 5 mM) was added thereto, and the 96-well plate was further allowed to stand in a CO2 incubator for 2 hours to collect the culture supernatants.
The collected culture supernatants were quantified for IL-18 using Human IL-18 DuoSet ELISA.

[3] = tested on: IL-1β production in CD14^+ cells; assay: LPS stimulation-induced IL-1β production in CD14^+ cells; conditions: LPS
Description: as §2, with “supernatant. MACS Buffer was added to the tube, and the cells were suspended and then applied to a separatory column to separate CD14^+ cells. The CD14^+ cell fraction was diluted with the medium and then centrifuged (at room temperature at 300 g for 10 minutes). The supernatant was removed and the cells were suspended in the medium (1 mL), followed by counting the number of viable cells. The cell suspension was adjusted with the medium to 2.4×10^5 or 3×10^5 cells/mL and seeded in a 96-well plate (2.4×10^4 cells/well), which was then allowed to stand in a CO2 incubator for 1 to 2 hours.” for “supernatant.”
The culture supernatants collected in 1.2.10 were quantified for IL-1β using Human IL-1β DuoSet ELISA.

[4] = tested on: OPN production from CD14^+ cells; assay: LPS stimulation-induced OPN production in CD14^+ cells; conditions: LPS
Description: as §2, with “supernatant. MACS Buffer was added to the tube, and the cells were suspended and then applied to a separatory column to separate CD14^+ cells. The CD14^+ cell fraction was diluted with the medium and then centrifuged (at room temperature at 300 g for 10 minutes). The supernatant was removed and the cells were suspended in the medium (1 mL), followed by counting the number of viable cells. The cell suspension was adjusted with the medium to 2.4×10^5 or 3×10^5 cells/mL and seeded in a 96-well plate (2.4×10^4 cells/well), which was then allowed to stand in a CO2 incubator for 1 to 2 hours.” for “supernatant.”
The collected culture supernatants were quantified for OPN using Human OPN DuoSet ELISA.

IL-8 production = assay: CRS toxicity evaluation system using CAR-T cells: IL-8; conditions: CRS toxicity evaluation system using CAR-T cells
Description: as §1

TNF-α production = assay: CRS toxicity evaluation system using CAR-T cells: TNF-α; conditions: CRS toxicity evaluation system using CAR-T cells
Description: as §1

IL-1β production = assay: CRS toxicity evaluation system using CAR-T cells: IL-1β; conditions: CRS toxicity evaluation system using CAR-T cells
Description: as §1

Tocilizumab: interleukin (IL)-6R antibody (tocilizumab) approved at the same time as CAR-T cell therapy
no suppressive effect: suppressive effect on MCP-1 production (MCP-1 production) | effect on VEGF production from macrophages [1] | suppressive effect on IL-18 production [2] | suppressive effect on IL-1β production [3] | suppressive effect on OPN production [4] | suppressive effect on IL-8 production (IL-8 production) | suppressive effect on TNF-α (TNF-α production) | suppressive effect on IL-1β (IL-1β production)
